Laboratory results published in patent US6395896B2, “Pyridazine derivatives, manufacturing method and related composition” (Shiseido Co., Ltd., priority 1999, dated 2002).

Tests used:
[1] = Perfume stabilization effect (photostabilizer, sunlight exposure, judgement by perfumier); design: key to Sunlight exposure (80 MJ) Smell evaluation / Sunlight exposure (80 MJ) evaluation: A: No change; B: No almost change; C: Yes change
Description: Next, the photostabilization effect for each perfume was studied by the following evaluation formulation.
Each test sample was prepared. Change of smell of sample exposed to sunlight (80 MJ) was observed (judgement by perfumier).

[2] = test system: sunburn; assay: Ultraviolet rays prevention effect test on a beach (lotion and cream samples); type: in vivo, human
Description: The prevention effect test was carried out on a beach during the summer. Equal amounts of sample were applied to the right and left sides of the backs of test subjects. After direct sunlight exposure, the degree of sunburn was evaluated in accordance with the following criteria. Each group consisted of 20 subjects. (Criterion) Remarkable effect: None or almost no sunburn symptom was found. Positive effect: Slight sunburn symptom was found. Negative effect: Strong sunburn symptom was found. (Evaluation) A: Subject of remarkable effect or positive effect is 80% or more. B: Subject of remarkable effect or positive effect is 50% or more and less than 80%. C: Subject of remarkable effect or positive effect is 30% or more and less than 50%. D: Subject of remarkable effect or positive effect is less than 30% (ii) Preparation of sample (A) Lotion [table] Each of water phase and alcohol phase was prepared. Then each was mixed. (B) Cream [table] The propylene glycol was added to ion-exchanged water and was dissolved, which was kept at 70° C. by heating (Water phase). The other components were mixed and melted by heating and was kept at 70° C. (Oil phase). The oil phase was added to the water phase, and an emulsion was formed.. After it was homogeneously emulsified with a homogenixer, it was cooled at 30° C. with stirring well.

What does the source list for Oc1nncc(N2CCOCC2)c1N1CCOCC1 [4,5-Dimorpholino-3-hydroxypyridazine]?
Sunlight exposure (80 MJ) Smell evaluation ([1]; Base perfume Aldehyde 0.03 wt %, photostabilizer 0.2 wt %): A; Sunlight exposure (80 MJ) Smell evaluation ([1]; Base perfume Animal 0.03 wt %, photostabilizer 0.3 wt %): A; Sunlight exposure (80 MJ) Smell evaluation ([1]; Base perfume Chypre 0.03 wt %, photostabilizer 0.01 wt %): A; Sunlight exposure (80 MJ) Smell evaluation ([1]; Base perfume Citrus 0.03 wt %, photostabilizer 0.03 wt %): A; Sunlight exposure (80 MJ) Smell evaluation ([1]; Base perfume Fougere 0.03 wt %, photostabilizer 0.1 wt %): A; Sunlight exposure (80 MJ) Smell evaluation ([1]; Base perfume Fruity 0.03 wt %, photostabilizer 0.1 wt %): A; Sunlight exposure (80 MJ) Smell evaluation ([1]; Base perfume Green 0.03 wt %, photostabilizer 0.05 wt %): A; Sunlight exposure (80 MJ) Smell evaluation ([1]; Base perfume Jasmine 0.03 wt %, photostabilizer 0.01 wt %): A; Sunlight exposure (80 MJ) Smell evaluation ([1]; Base perfume Muguet 0.03 wt %, photostabilizer 0.05 wt %): A; Sunlight exposure (80 MJ) Smell evaluation ([1]; Base perfume Oriental 0.03 wt %, photostabilizer 0.1 wt %): A; Sunlight exposure (80 MJ) Smell evaluation ([1]; Base perfume Rose 0.03 wt %, photostabilizer 0.05 wt %): A; Sunlight exposure (80 MJ) Smell evaluation ([1]; Base perfume Spicy 0.03 wt %, photostabilizer 0.2 wt %): A; Sunlight exposure (80 MJ) Smell evaluation ([1]; Base perfume Woody 0.03 wt %, photostabilizer 0.1 wt %): A; Sunlight exposure (80 MJ) Smell evaluation ([1]; Natural perfume Jasmine oil 0.03 wt %, photostabilizer 0.05 wt %): A; Sunlight exposure (80 MJ) Smell evaluation ([1]; Natural perfume Lavender oil 0.03 wt %, photostabilizer 0.1 wt %): A; Sunlight exposure (80 MJ) Smell evaluation ([1]; Natural perfume Neroli oil 0.03 wt %, photostabilizer 0.1 wt %): A; Sunlight exposure (80 MJ) Smell evaluation ([1]; Natural perfume Rose oil 0.03 wt %, photostabilizer 0.05 wt %): A; Sunlight exposure (80 MJ) Smell evaluation ([1]; Natural perfume Ylang ylang oil 0.03 wt %, photostabilizer 0.2 wt %): A; Sunlight exposure (80 MJ) Smell evaluation ([1]; Synthetic perfume Citral 0.03 wt %, photostabilizer 0.1 wt %): A; Sunlight exposure (80 MJ) Smell evaluation ([1]; Synthetic perfume Limonene 0.03 wt %, photostabilizer 0.05 wt %): A; Sunlight exposure (80 MJ) Smell evaluation ([1]; Synthetic perfume Linalool 0.03 wt %, photostabilizer 0.05 wt %): A; Sunlight exposure (80 MJ) Smell evaluation ([1]; Synthetic perfume Linalyl acetate 0.03 wt %, photostabilizer 0.1 wt %): A; Sunlight exposure (80 MJ) Smell evaluation ([1]; Synthetic perfume Rose oxide 0.03 wt %, photostabilizer 0.2 wt %): A; change of smell ([1]; base perfume, summary of Table 19): very small in comparison with other photostabilizers; Sunlight exposure (80 MJ) evaluation ([1]; natural perfume Ambergris oil, photostabilizer amount 0.3 wt %): A; Sunlight exposure (80 MJ) evaluation ([1]; natural perfume Bergamot oil, photostabilizer amount 0.1 wt %): A; Sunlight exposure (80 MJ) evaluation ([1]; natural perfume Castoreum oil, photostabilizer amount 0.3 wt %): A; Sunlight exposure (80 MJ) evaluation ([1]; natural perfume Cinnamon oil, photostabilizer amount 0.01 wt %): A; Sunlight exposure (80 MJ) evaluation ([1]; natural perfume Civet oil, photostabilizer amount 0.2 wt %): A; Sunlight exposure (80 MJ) evaluation ([1]; natural perfume Clary sage oil, photostabilizer amount 0.03 wt %): A; Sunlight exposure (80 MJ) evaluation ([1]; natural perfume Cloves oil, photostabilizer amount 0.03 wt %): A; Sunlight exposure (80 MJ) evaluation ([1]; natural perfume Coriander oil, photostabilizer amount 0.01 wt %): A; Sunlight exposure (80 MJ) evaluation ([1]; natural perfume Geranium oil, photostabilizer amount 0.03 wt %): A; Sunlight exposure (80 MJ) evaluation ([1]; natural perfume Lemon oil, photostabilizer amount 0.001 wt %): A; Sunlight exposure (80 MJ) evaluation ([1]; natural perfume Moss oil, photostabilizer amount 0.2 wt %): A; Sunlight exposure (80 MJ) evaluation ([1]; natural perfume Nutmeg oil, photostabilizer amount 0.01 wt %): A; Sunlight exposure (80 MJ) evaluation ([1]; natural perfume Oakmoss oil, photostabilizer amount 0.2 wt %): A; Sunlight exposure (80 MJ) evaluation ([1]; natural perfume Opopanax oil, photostabilizer amount 0.1 wt %): A; Sunlight exposure (80 MJ) evaluation ([1]; natural perfume Orange oil, photostabilizer amount 0.1 wt %): A; Sunlight exposure (80 MJ) evaluation ([1]; natural perfume Orris oil, photostabilizer amount 0.2 wt %): A; Sunlight exposure (80 MJ) evaluation ([1]; natural perfume Patchouli oil, photostabilizer amount 0.01 wt %): A; Sunlight exposure (80 MJ) evaluation ([1]; natural perfume Pepper oil, photostabilizer amount 0.001 wt %): A; Sunlight exposure (80 MJ) evaluation ([1]; natural perfume Peppermint oil, photostabilizer amount 0.03 wt %): A; Sunlight exposure (80 MJ) evaluation ([1]; natural perfume Sandals wood oil, photostabilizer amount 0.01 wt %): A; Sunlight exposure (80 MJ) evaluation ([1]; natural perfume Tuberose oil, photostabilizer amount 0.03 wt %): A; Sunlight exposure (80 MJ) evaluation ([1]; natural perfume Vetiver oil, photostabilizer amount 0.2 wt %): A; change of smell ([1]; natural perfume, summary of Table 17): very small in comparison with other photostabilizers; Sunlight exposure (80 MJ) Smell evaluation ([1]; synthetic perfume 2,6-Nonadienal, photostabilizer amount 0.03 wt %): A; Sunlight exposure (80 MJ) Smell evaluation ([1]; synthetic perfume Benzyl benzoate, photostabilizer amount 0.1 wt %): A; Sunlight exposure (80 MJ) Smell evaluation ([1]; synthetic perfume Cyclopentadecanone, photostabilizer amount 0.05 wt %): A; Sunlight exposure (80 MJ) Smell evaluation ([1]; synthetic perfume Eugenol, photostabilizer amount 0.1 wt %): A; Sunlight exposure (80 MJ) Smell evaluation ([1]; synthetic perfume Farnesol, photostabilizer amount 0.01 wt %): A; Sunlight exposure (80 MJ) Smell evaluation ([1]; synthetic perfume I-Carvone, photostabilizer amount 0.05 wt %): A; Sunlight exposure (80 MJ) Smell evaluation ([1]; synthetic perfume Indole, photostabilizer amount 0.2 wt %): A; Sunlight exposure (80 MJ) Smell evaluation ([1]; synthetic perfume Lilial, photostabilizer amount 0.3 wt %): A; Sunlight exposure (80 MJ) Smell evaluation ([1]; synthetic perfume Lyral, photostabilizer amount 0.3 wt %): A; Sunlight exposure (80 MJ) Smell evaluation ([1]; synthetic perfume Phenylacetaldehyde dimethyl acetal, photostabilizer amount 0.2 wt %): A; Sunlight exposure (80 MJ) Smell evaluation ([1]; synthetic perfume cis-3-Hexenol, photostabilizer amount 0.01 wt %): A; Sunlight exposure (80 MJ) Smell evaluation ([1]; synthetic perfume α-Hexyl cinnamic aldehyde, photostabilizer amount 0.03 wt %): A; Sunlight exposure (80 MJ) Smell evaluation ([1]; synthetic perfume β-Caryophyllene, photostabilizer amount 0.01 wt %): A; Sunlight exposure (80 MJ) Smell evaluation ([1]; synthetic perfume β-Ionone, photostabilizer amount 0.05 wt %): A; Sunlight exposure (80 MJ) Smell evaluation ([1]; synthetic perfume β-Phenylethyl alcohol, photostabilizer amount 0.03 wt %): A; Sunlight exposure (80 MJ) Smell evaluation ([1]; synthetic perfume γ-Undecalactone, photostabilizer amount 0.1 wt %): A; change of smell ([1]; synthetic perfume, summary of Table 18): very small in comparison with other photostabilizers; UV prevent effect ([2]; Cream, ultraviolet absorbent 0.0005 wt %): C (Subject of remarkable effect or positive effect is 30% or more and less than 50%.); UV prevent effect ([2]; Cream, ultraviolet absorbent 0.001 wt %): B (Subject of remarkable effect or positive effect is 50% or more and less than 80%.); UV prevent effect ([2]; Cream, ultraviolet absorbent 0.1 wt %): A (Subject of remarkable effect or positive effect is 80% or more.); UV prevent effect ([2]; Cream, ultraviolet absorbent 1 wt %): A (Subject of remarkable effect or positive effect is 80% or more.); UV prevent effect ([2]; Cream, ultraviolet absorbent 5 wt %): A (Subject of remarkable effect or positive effect is 80% or more.); UV prevent effect ([2]; Cream, ultraviolet absorbent 10 wt %): A (Subject of remarkable effect or positive effect is 80% or more.); UV prevent effect ([2]; Cream, ultraviolet absorbent 20 wt %): A (Subject of remarkable effect or positive effect is 80% or more.); UV prevent effect ([2]; Lotion, ultraviolet absorbent 0.0005 wt %): C (Subject of remarkable effect or positive effect is 30% or more and less than 50%.); UV prevent effect ([2]; Lotion, ultraviolet absorbent 0.001 wt %): B (Subject of remarkable effect or positive effect is 50% or more and less than 80%.); UV prevent effect ([2]; Lotion, ultraviolet absorbent 0.01 wt %): A (Subject of remarkable effect or positive effect is 80% or more.); UV prevent effect ([2]; Lotion, ultraviolet absorbent 1 wt %): A (Subject of remarkable effect or positive effect is 80% or more.); UV prevent effect ([2]; Lotion, ultraviolet absorbent 5 wt %): A (Subject of remarkable effect or positive effect is 80% or more.); UV prevent effect ([2]; Lotion, ultraviolet absorbent 10 wt %): A (Subject of remarkable effect or positive effect is 80% or more.); UV prevent effect ([2]; Lotion, ultraviolet absorbent 20 wt %): A (Subject of remarkable effect or positive effect is 80% or more.)
